Assay results as given in patent US20100256395A1, “EFFICIENT METHOD FOR PRODUCING MUGINEIC ACIDS” (SUNTORY HOLDINGS LIMITED, priority 2006, published 2010).

Tested on: mugineic acid-Fe complex transporter HvYS1
Experiment: Iron uptake activity: electrophysiological measurement of intracellular uptake of mugineic acid-Fe complex in oocytes expressing the transporter
Format: cell-based, barley
Conditions: substrate-Fe complex final concentration 50 μM; African clawed frog oocytes expressing HvYS1; natural mugineic acid set to 100%; FIG. 1
Text: Concerning the S isomer (natural form) and R isomer of 2′-OH obtained in Example 12, 2′-deoxy isomer obtained in Example 9, and mugineic acid purified from barley by the method described in “Takagi, S. et al., Journal of Plant Nutrition, 1984, 7th volume, p 469-477”, it was verified that the intracellular uptake of iron complex thereof actually takes place via the mugineic acid-Fe complex transporter. According to the method described in “Murata, Y. et al., Plant Journal (Plant J), 2006, 46th volume, p. 563-572.”, the gene HvYS1 gene which codes the mugineic acid-Fe complex transporter of barley (Plant J. 2006, vol. 46, 563-572) was introduced into the oocytes of the African clawed frog. […] The intracellular uptake of mugineic acid-Fe complex was measured using Oocyte clamp OC-725C (Warner Instrument) by the detection of electrochemical signal. More specifically, the oocyte which expressed the mugineic acid-Fe complex transporter HvYS1 was set to the chamber filled with ND-96 solution, 10 μl of a 5 mM substrate-Fe complex solution (final concentration 50 μM) was sprinkled on the oocyte and the electrical physiological activity was measured. The oocyte was plugged with 2 microelectrodes filled with 3M KCl, and with the mode in which the electric potential of the experimental tank was fixed at 0 V, the current value changing at a fixed electrical potential, […], was measured. […]

O=C(O)[C@@H](NCC[C@H](O)C(=O)O)[C@@H](O)CN1CC[C@H]1C(=O)O [natural mugineic acid, mugineic acid]
size of the current value (electrical physiological activity), relative value to natural mugineic acid: 100%
